# Data: publication PMC5218480 (PLoS ONE, 2017)
# Tested on: MV-4-11 cells
# Assay: Gene expression microarray analysis (Affymetrix PrimeView) and GSEA
# Format: cell-based, human
# Design: RFU PODN (11730768_x_at) / Fold change /veh PODN (11730768_x_at) / RFU LINC00158 (11744669_a_at) / Fold change /veh LINC00158 (11744669_a_at) / RFU DUSP10 (11751237_a_at) / Fold change /veh DUSP10 (11751237_a_at) / RFU ID3 (11757404_x_at) / Fold change /veh ID3 (11757404_x_at) / RFU PLEKHG5 (11737974_s_at) / Fold change /veh PLEKHG5 (11737974_s_at) / RFU LRRC4B (11730491_at) / Fold change /veh LRRC4B (11730491_at) / RFU GIMAP4 (11747438_a_at) / Fold change /veh GIMAP4 (11747438_a_at) / RFU KRT8 (11758183_x_at) / Fold change /veh KRT8 (11758183_x_at) / RFU CNN1 (11734310_a_at) / Fold change /veh CNN1 (11734310_a_at) / RFU VPS37D (11726825_at) / Fold change /veh VPS37D (11726825_at) / RFU C10orf10 (11716522_x_at) / Fold change /veh C10orf10 (11716522_x_at) / RFU KIR2DL2 /// KIR2DL4 /// KIR2DL5A /// KIR2DL5B /// KIR2DS1 /// KIR2DS2 /// KIR2DS3 /// KIR2DS4 /// KIR3DL3 /// KIR3DL3 /// KIR3DS1 (11738374_at) / Fold change /veh KIR2DL2 /// KIR2DL4 /// KIR2DL5A /// KIR2DL5B /// KIR2DS1 /// KIR2DS2 /// KIR2DS3 /// KIR2DS4 /// KIR3DL3 /// KIR3DL3 /// KIR3DS1 (11738374_at) / RFU C1QL1 (11718748_at) / Fold change /veh C1QL1 (11718748_at) / RFU TMPRSS4 (11747572_a_at) / Fold change /veh TMPRSS4 (11747572_a_at) / RFU HAMP (11756126_x_at) / Fold change /veh HAMP (11756126_x_at) / RFU RNFT2 (11725882_a_at) / Fold change /veh RNFT2 (11725882_a_at) / RFU NR4A2 (11747474_a_at) / Fold change /veh NR4A2 (11747474_a_at) / RFU ABCC12 (11746883_a_at) / Fold change /veh ABCC12 (11746883_a_at) / RFU TMEM136 (11760407_x_at) / Fold change /veh TMEM136 (11760407_x_at) / RFU CLDN22 /// WWC2 (11732394_at) / Fold change /veh CLDN22 /// WWC2 (11732394_at) / RFU HLA-DPB1 (11760878_x_at) / Fold change /veh HLA-DPB1 (11760878_x_at) / RFU SPINT1 (11716480_a_at) / Fold change /veh SPINT1 (11716480_a_at) / RFU GAP43 (11754022_s_at) / Fold change /veh GAP43 (11754022_s_at) / RFU A4GNT (11735810_at) / Fold change /veh A4GNT (11735810_at) / RFU PRB3 (11715151_x_at) / Fold change /veh PRB3 (11715151_x_at) / RFU TUBB4B (11761932_at) / Fold change /veh TUBB4B (11761932_at) / RFU CAPN14 (11732068_a_at) / Fold change /veh CAPN14 (11732068_a_at) / RFU TMCC2 (11721928_a_at) / Fold change /veh TMCC2 (11721928_a_at) / RFU IRGQ (11745062_a_at) / Fold change /veh IRGQ (11745062_a_at) / RFU FAM174B (11720279_a_at) / Fold change /veh FAM174B (11720279_a_at) / RFU TMPRSS4 (11748680_a_at) / Fold change /veh TMPRSS4 (11748680_a_at) / RFU FAM212B (11763350_a_at) / Fold change /veh FAM212B (11763350_a_at) / RFU PLEKHG5 (11743358_a_at) / Fold change /veh PLEKHG5 (11743358_a_at) / RFU ZSCAN30 (11745921_a_at) / Fold change /veh ZSCAN30 (11745921_a_at) / RFU CMKLR1 (11741424_a_at) / Fold change /veh CMKLR1 (11741424_a_at) / RFU LOC101060620 /// MAPK8IP1 (11723275_at) / Fold change /veh LOC101060620 /// MAPK8IP1 (11723275_at) / RFU SPTSSB (11747773_x_at) / Fold change /veh SPTSSB (11747773_x_at) / RFU PRSS12 (11739890_at) / Fold change /veh PRSS12 (11739890_at) / RFU BIN1 (11741810_x_at) / Fold change /veh BIN1 (11741810_x_at) / RFU WNT11 (11732464_a_at) / Fold change /veh WNT11 (11732464_a_at) / RFU C10orf10 (11716521_a_at) / Fold change /veh C10orf10 (11716521_a_at) / RFU C5orf56 (11738089_at) / Fold change /veh C5orf56 (11738089_at) / RFU CYB561 (11721691_x_at) / Fold change /veh CYB561 (11721691_x_at) / RFU ANKRD19P (11752326_a_at) / Fold change /veh ANKRD19P (11752326_a_at) / RFU OR2T12 /// OR2T33 /// OR2T8 (11738714_s_at) / Fold change /veh OR2T12 /// OR2T33 /// OR2T8 (11738714_s_at) / RFU VCAN (11748164_a_at) / Fold change /veh VCAN (11748164_a_at) / RFU JSRP1 (11732532_at) / Fold change /veh JSRP1 (11732532_at) / RFU KRTAP10-11 (11738290_x_at) / Fold change /veh KRTAP10-11 (11738290_x_at) / RFU MYO3A (11730013_a_at) / Fold change /veh MYO3A (11730013_a_at) / RFU EBF3 (11725865_a_at) / Fold change /veh EBF3 (11725865_a_at) / RFU CAMK2N1 (11719241_x_at) / Fold change /veh CAMK2N1 (11719241_x_at) / RFU C5orf56 (11738088_a_at) / Fold change /veh C5orf56 (11738088_a_at) / RFU OLFML3 (11715873_a_at) / Fold change /veh OLFML3 (11715873_a_at) / RFU LOC100653217 /// NTM (11731650_a_at) / Fold change /veh LOC100653217 /// NTM (11731650_a_at) / RFU MAPK11 (11762145_a_at) / Fold change /veh MAPK11 (11762145_a_at) / RFU FIZ1 (11724087_x_at) / Fold change /veh FIZ1 (11724087_x_at) / RFU OASL (11726364_x_at) / Fold change /veh OASL (11726364_x_at) / RFU SOX15 (11748057_x_at) / Fold change /veh SOX15 (11748057_x_at) / RFU CD79A (11719716_a_at) / Fold change /veh CD79A (11719716_a_at) / RFU HIST1H1D (11736915_at) / Fold change /veh HIST1H1D (11736915_at) / RFU CASKIN2 (11723855_a_at) / Fold change /veh CASKIN2 (11723855_a_at) / RFU LOC730098 (11760151_x_at) / Fold change /veh LOC730098 (11760151_x_at) / RFU OR4N2 (11742367_at) / Fold change /veh OR4N2 (11742367_at) / RFU PRRT2 (11749266_a_at) / Fold change /veh PRRT2 (11749266_a_at) / RFU SNX32 (11753110_a_at) / Fold change /veh SNX32 (11753110_a_at) / RFU CDHR5 (11726645_a_at) / Fold change /veh CDHR5 (11726645_a_at) / RFU RCAN1 (11760418_a_at) / Fold change /veh RCAN1 (11760418_a_at) / RFU FAM167A (11723789_a_at) / Fold change /veh FAM167A (11723789_a_at) / RFU FAM26E (11764081_at) / Fold change /veh FAM26E (11764081_at) / RFU ISYNA1 (11749810_s_at) / Fold change /veh ISYNA1 (11749810_s_at) / RFU ACY1 (11761880_at) / Fold change /veh ACY1 (11761880_at) / RFU 11764098_at / Fold change /veh 11764098_at / RFU SAMD14 (11745864_x_at) / Fold change /veh SAMD14 (11745864_x_at) / RFU NPB (11741838_a_at) / Fold change /veh NPB (11741838_a_at) / RFU TMPRSS6 (11731388_a_at) / Fold change /veh TMPRSS6 (11731388_a_at) / RFU KRTAP10-2 (11738614_at) / Fold change /veh KRTAP10-2 (11738614_at) / RFU ARHGAP8 /// PRR5-ARHGAP8 (11727945_x_at) / Fold change /veh ARHGAP8 /// PRR5-ARHGAP8 (11727945_x_at) / RFU KRTAP5-7 /// NADSYN1 (11734609_at) / Fold change /veh KRTAP5-7 /// NADSYN1 (11734609_at) / RFU RASL12 (11751679_a_at) / Fold change /veh RASL12 (11751679_a_at) / RFU CDKN2B (11736163_a_at) / Fold change /veh CDKN2B (11736163_a_at) / RFU PRF1 (11729649_at) / Fold change /veh PRF1 (11729649_at) / RFU, ZNF638 /// ZNF638-IT1 / Fold change vs veh, ZNF638 /// ZNF638-IT1 / RFU, PANK3 / Fold change vs veh, PANK3 / RFU, SH3YL1 / Fold change vs veh, SH3YL1 / RFU, ZEB2 / Fold change vs veh, ZEB2 / RFU, NRIP1 / Fold change vs veh, NRIP1 / RFU, PTTG1IP / Fold change vs veh, PTTG1IP / RFU, CAPN2 / Fold change vs veh, CAPN2 / RFU, MED14 / Fold change vs veh, MED14 / RFU, SNORA58 / Fold change vs veh, SNORA58 / RFU, C1orf63 / Fold change vs veh, C1orf63 / RFU, LRRFIP1 / Fold change vs veh, LRRFIP1 / RFU, NDUFAF7 / Fold change vs veh, NDUFAF7 / RFU, SLC12A2 / Fold change vs veh, SLC12A2 / RFU, IBTK / Fold change vs veh, IBTK / RFU, ESF1 / Fold change vs veh, ESF1 / Fold change vs veh, TMEM50B / RFU, TAOK1 / Fold change vs veh, TAOK1 / RFU, ACBD3 / Fold change vs veh, ACBD3 / RFU, TMA16 / Fold change vs veh, TMA16 / RFU, RWDD3 / Fold change vs veh, RWDD3 / RFU, BCAT1 / Fold change vs veh, BCAT1 / RFU, EDEM3 / Fold change vs veh, EDEM3 / RFU, TMEM33 / Fold change vs veh, TMEM33 / RFU, WDR75 / Fold change vs veh, WDR75 / RFU, AHCTF1 / Fold change vs veh, AHCTF1 / RFU, TFRC / Fold change vs veh, TFRC / RFU, ZDHHC17 / Fold change vs veh, ZDHHC17 / RFU, NOM1 / Fold change vs veh, NOM1 / RFU, ARL8B / Fold change vs veh, ARL8B / RFU, ZBTB11 / Fold change vs veh, ZBTB11 / RFU, TAMM41 / Fold change vs veh, TAMM41 / RFU, KIAA1704 /// LOC100996395 / Fold change vs veh, KIAA1704 /// LOC100996395 / RFU, ING1 / Fold change vs veh, ING1 / RFU, TRMT61B / Fold change vs veh, TRMT61B / RFU, FUBP3 / Fold change vs veh, FUBP3 / RFU, TP53 / Fold change vs veh, TP53 / RFU, TNKS2 / Fold change vs veh, TNKS2 / RFU, ZFP14 / Fold change vs veh, ZFP14 / RFU, ACTR2 / Fold change vs veh, ACTR2 / RFU, PPP3R1 / Fold change vs veh, PPP3R1 / RFU, PIK3R1 / Fold change vs veh, PIK3R1 / RFU, HNRNPA1 / Fold change vs veh, HNRNPA1 / RFU, RNF170 / Fold change vs veh, RNF170 / RFU, ZNF28 / Fold change vs veh, ZNF28 / RFU, RNGTT / Fold change vs veh, RNGTT / RFU, OGT / Fold change vs veh, OGT / RFU, BRD1 / Fold change vs veh, BRD1 / RFU, MARS / Fold change vs veh, MARS / RFU, ZNF655 / Fold change vs veh, ZNF655 / RFU, FAHD1 / Fold change vs veh, FAHD1 / RFU, BDP1 / Fold change vs veh, BDP1 / RFU, LRRCC1 / Fold change vs veh, LRRCC1 / RFU, ARID1A / Fold change vs veh, ARID1A / RFU, ZNF146 / Fold change vs veh, ZNF146 / RFU, ZNF330 / Fold change vs veh, ZNF330 / RFU, GPN3 / Fold change vs veh, GPN3 / RFU, C9orf123 / Fold change vs veh, C9orf123 / RFU, N4BP2L2 / Fold change vs veh, N4BP2L2 / RFU, ARFIP1 / Fold change vs veh, ARFIP1 / RFU, FAM179B / Fold change vs veh, FAM179B / RFU, BCL10 / Fold change vs veh, BCL10 / RFU, UHRF1BP1L / Fold change vs veh, UHRF1BP1L / RFU, BET1 / Fold change vs veh, BET1 / RFU, CNOT2 / Fold change vs veh, CNOT2 / RFU, ZNF268 / Fold change vs veh, ZNF268 / Fold change vs veh, ZNF507 / RFU, DGCR2 / Fold change vs veh, DGCR2 / RFU, WDSUB1 / Fold change vs veh, WDSUB1 / Fold change vs veh, HSP90B1 /// MIR3652 / RFU, ADSS / Fold change vs veh, ADSS / RFU, GK / Fold change vs veh, GK / RFU, ZNF148 / Fold change vs veh, ZNF148 / RFU, TAF9 / Fold change vs veh, TAF9 / RFU, SLC1A5 / Fold change vs veh, SLC1A5 / RFU, SLMO2 / Fold change vs veh, SLMO2 / RFU, ABCC4 / Fold change vs veh, ABCC4 / RFU, LOC101060439 /// RAP1B / Fold change vs veh, LOC101060439 /// RAP1B / RFU, RFX7 / Fold change vs veh, RFX7 / RFU, GTPBP10 / Fold change vs veh, GTPBP10 / RFU, CNEP1R1 / Fold change vs veh, CNEP1R1 / RFU, BIVM-ERCC5 /// ERCC5 / Fold change vs veh, BIVM-ERCC5 /// ERCC5 / RFU, ILF3 / Fold change vs veh, ILF3 / RFU 11762660_at / Fold change /veh 11762660_at / RFU VCAN (11757783_s_at) / Fold change /veh VCAN (11757783_s_at) / RFU DDX43 (11728927_at) / Fold change /veh DDX43 (11728927_at) / RFU KRT8 (11758188_x_at) / Fold change /veh KRT8 (11758188_x_at) / RFU NKD1 (11759106_at) / Fold change /veh NKD1 (11759106_at) / RFU SRD5A1 (11742802_a_at) / Fold change /veh SRD5A1 (11742802_a_at) / RFU TPSAB1 /// TPSB2 (11721975_s_at) / Fold change /veh TPSAB1 /// TPSB2 (11721975_s_at) / RFU GSTM3 (11746129_a_at) / Fold change /veh GSTM3 (11746129_a_at) / RFU IL23R (11737362_x_at) / Fold change /veh IL23R (11737362_x_at) / RFU TMEM51 (11727254_a_at) / Fold change /veh TMEM51 (11727254_a_at) / RFU PIWIL2 (11732686_x_at) / Fold change /veh PIWIL2 (11732686_x_at) / RFU ORM1 (11744905_x_at) / Fold change /veh ORM1 (11744905_x_at) / RFU CCDC152 (11743942_at) / Fold change /veh CCDC152 (11743942_at) / RFU ECM1 (11717891_a_at) / Fold change /veh ECM1 (11717891_a_at) / RFU IL23R (11748794_a_at) / Fold change /veh IL23R (11748794_a_at) / RFU TNFAIP8L3 (11732012_x_at) / Fold change /veh TNFAIP8L3 (11732012_x_at) / RFU MBOAT4 (11741988_at) / Fold change /veh MBOAT4 (11741988_at) / RFU 11764193_at / Fold change /veh 11764193_at / RFU TMEM53 (11763286_at) / Fold change /veh TMEM53 (11763286_at) / RFU MAGEB2 (11727129_at) / Fold change /veh MAGEB2 (11727129_at) / RFU TMEM200A (11744735_a_at) / Fold change /veh TMEM200A (11744735_a_at) / RFU CCDC152 (11751479_a_at) / Fold change /veh CCDC152 (11751479_a_at) / RFU FAM211A (11726209_a_at) / Fold change /veh FAM211A (11726209_a_at) / RFU RGS16 (11746705_a_at) / Fold change /veh RGS16 (11746705_a_at) / RFU VCAN (11755009_s_at) / Fold change /veh VCAN (11755009_s_at) / RFU RHOB (11743442_s_at) / Fold change /veh RHOB (11743442_s_at) / RFU RGS16 (11720943_a_at) / Fold change /veh RGS16 (11720943_a_at) / RFU RGS16 (11720944_at) / Fold change /veh RGS16 (11720944_at) / RFU, VPS4B / Fold change vs veh, VPS4B / RFU, CREB1 / Fold change vs veh, CREB1 / RFU, DNAJC13 / Fold change vs veh, DNAJC13 / RFU, GNAQ / Fold change vs veh, GNAQ / RFU, CDK5R1 / Fold change vs veh, CDK5R1 / RFU, ZRANB3 / Fold change vs veh, ZRANB3 / RFU, CUL4A / Fold change vs veh, CUL4A / RFU, CCNY / Fold change vs veh, CCNY / RFU, UFL1 / Fold change vs veh, UFL1 / RFU, COG3 / Fold change vs veh, COG3 / RFU, DIAPH2 / Fold change vs veh, DIAPH2 / RFU, SKA2 / Fold change vs veh, SKA2 / RFU, AFF3 / Fold change vs veh, AFF3 / RFU, LMF1 / Fold change vs veh, LMF1 / RFU, IPO11 / Fold change vs veh, IPO11 / RFU, DFFB / Fold change vs veh, DFFB / RFU, FOXP1 / Fold change vs veh, FOXP1 / RFU, CARD8 / Fold change vs veh, CARD8 / RFU, STRN3 / Fold change vs veh, STRN3 / RFU, ADK / Fold change vs veh, ADK / RFU, RASSF2 / Fold change vs veh, RASSF2 / RFU, WIPF1 / Fold change vs veh, WIPF1 / RFU, LARP1B / Fold change vs veh, LARP1B / RFU, RASA1 / Fold change vs veh, RASA1 / RFU, RB1 / Fold change vs veh, RB1 / RFU, PPFIA1 / Fold change vs veh, PPFIA1 / RFU, MAT2A / Fold change vs veh, MAT2A / RFU, CCT5 / Fold change vs veh, CCT5 / RFU, WDR92 / Fold change vs veh, WDR92 / RFU, CUX1 / Fold change vs veh, CUX1 / RFU, TTC7A / Fold change vs veh, TTC7A / RFU, TMEM135 / Fold change vs veh, TMEM135 / RFU, DEPTOR / Fold change vs veh, DEPTOR / RFU, CPM / Fold change vs veh, CPM / RFU, DNAJB6 / Fold change vs veh, DNAJB6 / RFU, CACNA2D3 / Fold change vs veh, CACNA2D3 / RFU, DTX4 / Fold change vs veh, DTX4 / RFU, TFCP2 / Fold change vs veh, TFCP2 / RFU, GMCL1 /// GMCL1P1 / Fold change vs veh, GMCL1 /// GMCL1P1 / RFU, AEBP2 / Fold change vs veh, AEBP2 / RFU, SNHG1 /// SNORD22 /// SNORD25 /// SNORD26 /// SNORD27 /// SNORD28 /// SNORD29 /// SNORD31 / Fold change vs veh, SNHG1 /// SNORD22 /// SNORD25 /// SNORD26 /// SNORD27 /// SNORD28 /// SNORD29 /// SNORD31 / Fold change (Aza/veh), C12orf56 (ProbeSet 11735607_a_at) / Fold change (ACY-1035/veh), C12orf56 (ProbeSet 11735607_a_at) / Fold change (Aza/veh), FGFR1OP (ProbeSet 11751329_s_at) / Fold change (ACY-1035/veh), FGFR1OP (ProbeSet 11751329_s_at) / Fold change (Aza/veh), VPS36 (ProbeSet 11739960_a_at) / Fold change (ACY-1035/veh), VPS36 (ProbeSet 11739960_a_at) / RFU SYPL1 (11715823_x_at) / Fold change /veh SYPL1 (11715823_x_at) / RFU IGFBP7 (11715501_s_at) / Fold change /veh IGFBP7 (11715501_s_at) / RFU REEP3 (11722064_at) / Fold change /veh REEP3 (11722064_at) / RFU IGLL1 (11728026_x_at) / Fold change /veh IGLL1 (11728026_x_at): dose or concentration left out as unconfirmed
# Conditions: MV-4-11 cells, 48 hours
smiles,measurement,value
Nc1ncn([C@@H]2O[C@H](CO)[C@@H](O)[C@H]2O)c(=O)n1 [azacitidine],RFU ECM1 (11717891_a_at),24.53 RFU
